# Measured values: patent US20040127529A1, “Remedies for skin ulcer” (Fujisawa Pharmaceutical Co., Ltd., priority 1999, published 2004)
# Test system: full-thickness wound in C57BL/KsJ db/db mice
# Assay: db/db mouse full-thickness wound model
# Format: in vivo
# Details: for wound area reduction: 100 μl applied once daily for 18 days, day 18 following wound construction (vehicle 73%); for day from which wound area differs significantly (p<0.05) from the vehicle control group: once daily
# Description: Test Example 1 (db/db mouse full-thickness wound model)
# Using 10-week-old male C57BL/KsJ db/db mice (db/db mice) and the corresponding control C57BL/KsJ +m/+m mice (+m/+m mice), the back hair coat was removed with a depilatory cream. After 3 days, using ophthalmological scissors, the skin in a circular area with a diameter of about 1.5 cm at the dorsal midline was removed to construct a full-thickness wound. Thereafter, the full-thickness wound area was covered with a poly-urethane film agent. During 18 consecutive days beginning the day of wound construction, 100 μl of the investigational compound solution or distilled water (vehicle) was taken in a syringe and applied through the polyurethane film once daily. The polyurethane film agent was changed every day and after disinfection with 3% H2O2, the drug was applied in the same manner as above. The wound area was measured by the tracing method under light anesthesia every other day as a rule. With the initial wound area at the beginning of drug application being taken as 100%, the fractional area at each day of measurement was calculated.
compound,measurement,setting,value
"O=C(O)COc1cccc2c1CC[C@](O)(COC(=O)N(c1ccccc1)c1ccccc1)C2 [test compound, [[(2R)-5-(carboxymethoxy)-2-hydroxy-1,2,3,4-tetrahydronaphth-2-yl]methyl]N,N-diphenylcarbamate]",early expansion of wound area,0.01% and 0.1% solutions,not observed
same,overall conclusion on wound healing,0.01% and 0.1% solutions,wound healing-promoting action
same,wound area reduction,0.01% solution,90%
same,day from which wound area differs significantly (p<0.05) from the vehicle control group,0.01% solution,≥ 7 days
same,wound area reduction,0.1% solution,93%
same,day from which wound area differs significantly (p<0.05) from the vehicle control group,0.1% solution,≥ 4 days
